# Where “and” joins values, the source holds several entries; their conditions need not be identical. Identical values can stand only once.
# Columns and labels:
# [1] = In vivo stability of compound in kidney tissue after administration to mice; settings: 7 days post-injection
# [2] = test system: UUO model of kidney fibrosis; assay: Unilateral ureteral obstruction (UUO) model of kidney fibrosis: kidney collagen 1A1 and collagen 3A1 expression by real-time PCR; type: in vivo, mice; settings: for Collagen 3A1 (Normalized Expression) Mean / Collagen 1A1 (Normalized Expression) Mean: group mean; for Collagen 1A1 (Normalized Expression) / Collagen 3A1 (Normalized Expression): individual animals, 20 mg/kg
# Procedure, shortened: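 Fibrosis induced by unilateral ureter ligation, groups of 8; anti-miR-21 compounds dosed at 20 mg/kg around surgery (days −3, −1, +5 or −5, −3, +3; repeat study subcutaneous at −5, −2, +3). Kidneys taken on day 10 or 11; Col1A1 and Col3A1 mRNA measured by real-time PCR, normalized to GAPDH and, in one study, also to sham.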
# [3] = Ex vivo liver homogenate stability assay (HPLC-TOF MS); settings: 5 μM oligonucleotide in liver homogenate (50 mg tissue per ml), 24 hours at 37° C.
# [4] = test system: model of ischemia reperfusion injury (IRI); assay: Unilateral IRI model: collagen area fraction of kidney tissue; type: in vivo, mouse; settings: for reduction in collagen area fraction (significance): IRI; for Collagen Area Fraction (#) Mean: group mean; for Collagen Area Fraction (#): 20 mg/kg
# Procedure: A model of ischemia reperfusion injury (IRI) is created in the mouse through unilateral or bilateral clamping of kidney arteries, which leads to tubule damage, inflammation, and fibrosis. Kidney dysfunction can occur either early (<5 days) or late (>7 days) in this model, with the early time points useful to test candidate agents for the treatment of acute kidney injury, and the later time points useful to model chronic fibrosis.
# Anti-miR-21 compounds were tested in the unilateral IRI model. Unilateral IRI was induced for a period of 30 minutes. Treatment groups were as follows: sham IRI procedure; IRI with PBS administered subcutaneously; IRI with anti-miR-21 compound 25070 administered intraperitoneally at a dose of 20 mg/kg; the 2′-fluoro/2′-MOE modified anti-miR-21 25919 administered intraperitoneally at a dose of 20 mg/kg; and a 2′-fluoro/2′ modified mismatch anti-miR-21 (having three mismatches to the sequence of miR-21) 25319 administered intraperitoneally at a dose of 20 mg/kg. PBS or anti-miR compound was administered on days 5, 6, and 7 following IRI, and animals were sacrificed 14 days after IRI. As anti-miR compound is administered 5 days following the injury to the kidney, or later, when fibrosis has already occurred to some extent, this treatment regimen is considered a therapeutic regimen, rather than a prophylactic regimen.
# Kidney tissue was collected for analysis of collagen 1A1 and collagen 3A1 expression (shown in Table 0), and collagen area fraction (shown in Table P).
# A similar study was performed with the same treatment groups and additional days of treatment. In this study, treatments were administered intraperitoneally at days 5, 6, 7, 14, and 21 following the IRI procedure Animals were sacrificed on Day 27, and kidney tissue was collected for analysis of collagen 1A1 and collagen 3A1 expression, as well as collagen area fraction.
# IR/Nx model mice = assay: Survival rate of IR/Nx model mice two days after nephrectomy; type: in vivo
# Procedure: The survival rate of IR/Nx model mice two days after nephrectomy was determined across six different experiments to determine if administration of anti-miR-21 compounds increases survival. In the first three experiments, anti-miR-21 compound was administered on days 5, 6, and 7 after ischemia reperfusion injury, and nephrectomy occurred on day 10 or day 11. In the second three experiments, anti-miR-21 compound was administered on days 2, 3, and 4, and nephrecromy occurred on day 7.
# [5] = Table K, UUO mice, 20 mg/kg at days -3, -1, +5, kidney at day 11, UUO-PBS mean 87.2
# [6] = Table K, UUO mice, 20 mg/kg at days -3, -1, +5, kidney at day 11, UUO-PBS mean 114.9
# [7] = Table K, UUO mice, 20 mg/kg at days -3, -1, +5 (prophylactic), kidney at day 11, real-time PCR normalized to GAPDH then sham
# [8] = Table L, repeat UUO study, 20 mg/kg SC, prophylactic
# [9] = Table M, UUO, 25070 20 mg/kg s.c. 5 and 2 days prior to and 3 days after UUO, irbesartan PO daily days 0-7, sacrifice Day 10
# [10] = meta-analysis of UUO studies, 20 mg/kg at days -3, -1, +5, kidney at day 11
# [11] = repeated UUO study, subcutaneously 20 mg/kg, prophylactic
# [12] = Table P, unilateral IRI, 20 mg/kg intraperitoneally on days 5, 6, 7, day 14, IRI-PBS mean 15.1
# [13] = Table P, individual animals, unilateral IRI, 20 mg/kg intraperitoneally on days 5, 6, 7, day 14
# [14] = unilateral IRI mouse, 20 mg/kg intraperitoneally on days 5, 6, 7, 14, and 21, sacrificed Day 27
# [15] = individual animals (not same as PCR), unilateral IRI mouse, 20 mg/kg intraperitoneally on days 5, 6, 7, 14, and 21, sacrificed Day 27
sequence,measurement,setting,value
"AECSATCSAGTCSTGAUSAAGCSTAE (ACATCAGTCTGATAAGCTA; modified nucleosides, phosphorothioate linkages, chemistry not fully specified) [Compound 25070]",compound present in kidney tissue lacking the 3′-terminal nucleoside,[1],about 50%
same,Collagen 3A1 (Normalized Expression) Mean,[2]; [5],55.5
same,Collagen 1A1 (Normalized Expression) Mean,[2]; [6],81.0
same,Collagen 1A1 (Normalized Expression),[2]; [7],67.7 and 97.7 and 88.8 and 95.9 and 71.4 and 44.5 and 73.0 and 109.4
same,Collagen 3A1 (Normalized Expression),[2]; [7],36.4 and 75.6 and 47.3 and 55.5 and 63.3 and 28.5 and 64.2 and 72.9
same,Collagen 3A1 (Normalized Expression) Mean,"[2]; Table L, repeat UUO study, 20 mg/kg SC, prophylactic, UUO-PBS mean 58.8",42.4
same,Collagen 1A1 (Normalized Expression) Mean,"[2]; Table L, repeat UUO study, 20 mg/kg SC, prophylactic, UUO-PBS mean 74.3",30.2
same,Collagen 1A1 (Normalized Expression),[2]; [8],13.9 and 9.2 and 32.3 and 57.2 and 47.6 and 26.1 and 35.0 and 20.4
same,Collagen 3A1 (Normalized Expression),[2]; [8],34.9 and 47.4 and 25.3 and 38.0 and 47.9 and 54.3 and 56.1 and 35.2
same,Collagen 3A1 (Normalized Expression) Mean,"[2]; Table M, UUO, 25070 20 mg/kg s.c., irbesartan PO daily days 0-7, Day 10, UUO-PBS 93.2, Tween/MC vehicle 132.4",53.7
same,Collagen 1A1 (Normalized Expression) Mean,"[2]; Table M, UUO, 25070 20 mg/kg s.c., irbesartan PO daily days 0-7, Day 10, UUO-PBS 129.6, Tween/MC vehicle 150.2",64.2
same,Collagen 1A1 (Normalized Expression),[2]; [9],87.5 and 67.4 and 22.2 and 61.9 and 42.0 and 69.2 and 68.4 and 95.2
same,Collagen 3A1 (Normalized Expression),[2]; [9],38.6 and 56.9 and 77.2 and 50.7 and 76.4 and 49.7 and 44.3 and 35.9
same,reduction in Col3a1 expression (significance),"[2]; UUO, comparison with irbesartan, sacrifice Day 10",statistically significant reductions
same,reduction in Col1A1 expression relative to saline-treated animals (significance),"[2]; UUO, comparison with irbesartan, sacrifice Day 10, p<0.05 by one-way ANOVA",statistically significant reduction
same,reduction in collagen expression (in words),"[2]; meta-analysis of UUO studies, 20 mg/kg at days -3, -1, +5",greatest potency
same,inhibition of collagen 1A1,[2]; [10],40%
same,inhibition of collagen 3A1,[2]; [10],30%
same,collagen 1A1 expression (in words),[2]; [11],potent inhibitor of collagen 1A1 and collagen 3A1 expression
same,collagen 3A1 expression (in words),[2]; [11],potent inhibitor of collagen 1A1 and collagen 3A1 expression
same,compound lacking the 3′-terminal nucleoside,[3],about 27%
same,compound present as the full-length compound,[3],about 58%
same,reduction in collagen area fraction (significance),"[4]; 20 mg/kg intraperitoneally on days 5, 6, and 7, sacrifice 14 days after IRI",statistically significant reduction
same,reduction in collagen area fraction (significance),"[4]; intraperitoneally at days 5, 6, 7, 14, and 21, sacrifice Day 27",statistically significant reduction
same,Collagen Area Fraction (#) Mean,[4]; [12],9.7 #
same,Collagen Area Fraction (#),[4]; [13],10.266 # and 11.772 # and 10.267 # and 8.404 # and 7.862 # and 6.975 # and 8.381 # and 13.773 #
same,Collagen Area Fraction (#) Mean,[4]; [14],10.1
same,Collagen Area Fraction (#),[4]; [15],7.354 and 9.241 and 9.589 and 11.573 and 8.182 and 10.695 and 13.978 and 10.12
same,"Survival rate 2 days after Nx, Summary (day 10/11 Nx)","IR/Nx model mice; Studies 1-3 pooled, Nx day 10/11, dosing days 5, 6, and 7",80% (29/36)
same,"Survival rate 2 days after Nx, Summary (day 7 Nx)","IR/Nx model mice; Studies 4-6 pooled, Nx day 7, dosing days 2, 3, and 4",69% (25/36)
same,Survival rate 2 days after Nx,"IR/Nx model mice; Study 1, Nx Day 10, 30 mg/kg on days 5, 6, and 7 after IR",91.7%
same,Survival rate 2 days after Nx,"IR/Nx model mice; Study 2, Nx Day 11, 30 mg/kg on days 5, 6, and 7 after IR",83.3%
same,Survival rate 2 days after Nx,"IR/Nx model mice; Study 3, Nx Day 10, 20 mg/kg on days 5, 6, and 7 after IR",66.6%
same,Survival rate 2 days after Nx,"IR/Nx model mice; Study 4, Nx Day 7, 20 mg/kg on days 2, 3, and 4 after IR",75%
same,Survival rate 2 days after Nx,"IR/Nx model mice; Study 5, Nx Day 7, 20 mg/kg on days 2, 3, and 4 after IR",66.7%
same,Survival rate 2 days after Nx,"IR/Nx model mice; Study 6, Nx Day 7, 20 mg/kg on days 2, 3, and 4 after IR",66.7%
same,survival rate two days after nephrectomy,"IR/Nx model mice; first three experiments, dosing days 5, 6, 7, nephrectomy on day 10 or day 11",80%
same,survival rate two days after nephrectomy,"IR/Nx model mice; second three experiments, dosing days 2, 3, 4, nephrectomy on day 7",69%
"UECEAFAFCFAFUFCFAFGFUFCEUEGEAFUFAFAFGFCFUEAE (antisense TCAACATCAGTCTGATAAGCTA; listed as DNA, chemistry not fully specified) [Compound 25919, reference compound]",Collagen 3A1 (Normalized Expression) Mean,[2]; [5],56.9
same,Collagen 1A1 (Normalized Expression) Mean,[2]; [6],86.6
same,Collagen 1A1 (Normalized Expression),[2]; [7],150.2 and 54.2 and 84.6 and 67.7 and 78.7 and 62.2 and 89.2 and 106.2
same,Collagen 3A1 (Normalized Expression),[2]; [7],67.1 and 33.9 and 87.6 and 47.3 and 67.7 and 46.7 and 47.0 and 57.8
same,Collagen Area Fraction (#) Mean,[4]; [12],8.2 #
same,Collagen Area Fraction (#),[4]; [13],7.093 # and 8.254 # and 8.095 # and 8.559 # and 8.681 # and 6.31 # and 8.416 # and 9.905 #
same,Collagen Area Fraction (#) Mean,[4]; [14],12.8
same,Collagen Area Fraction (#),[4]; [15],11.882 and 9.755 and 9.506 and 12.654 and 20.319 and 11.551 and 12.224 and 14.468

# Source: US20120270928A1, “MICRORNA COMPOUNDS AND METHODS FOR MODULATING MIR-21 ACTIVITY” (REGULUS THERAPEUTICS INC., priority 2011, published 2012)
